Patent US9464064B2, “HCV helicase inhibitors and methods of use thereof” (University of Kansas, priority 2011, dated 2016)

Target: T1, HCV NS3 helicase NS3h_1b(con1) (Hepatitis C virus genotype 1b, UniProt Q9WMX2)
T1 construct: truncated C-terminally His-tagged NS3 proteins lacking the N-terminal protease, called NS3h; His-tag (C); made in house
Assay: MBHA screen of NCI mechanistic set library at 20 μM (percent inhibition, compound interference)
Assay type: biochemical
Conditions: compounds at 20 μM; for Inh. (%) (Inhibition): calculated from Equation 1
Method in brief: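 Molecular beacon-based DNA unwinding assay; compounds screened at 20 μM in triplicate, with DMSO-only negative and 500 nM dT20 positive controls. Fluorescence (ex 643/em 670 nm) was read before and 30 min after adding ATP to 1 mM. Percent inhibition came from the change relative to DMSO controls; interference from pre-ATP fluorescence versus DMSO controls.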

[1] = assay interference calculated with Equation 2 (fluorescence vs DMSO-only controls before ATP)
[2] = MBHA with DNA substrate, assay interference calculated with Equation 2

T1 sequence (Q9WMX2 1192-1657): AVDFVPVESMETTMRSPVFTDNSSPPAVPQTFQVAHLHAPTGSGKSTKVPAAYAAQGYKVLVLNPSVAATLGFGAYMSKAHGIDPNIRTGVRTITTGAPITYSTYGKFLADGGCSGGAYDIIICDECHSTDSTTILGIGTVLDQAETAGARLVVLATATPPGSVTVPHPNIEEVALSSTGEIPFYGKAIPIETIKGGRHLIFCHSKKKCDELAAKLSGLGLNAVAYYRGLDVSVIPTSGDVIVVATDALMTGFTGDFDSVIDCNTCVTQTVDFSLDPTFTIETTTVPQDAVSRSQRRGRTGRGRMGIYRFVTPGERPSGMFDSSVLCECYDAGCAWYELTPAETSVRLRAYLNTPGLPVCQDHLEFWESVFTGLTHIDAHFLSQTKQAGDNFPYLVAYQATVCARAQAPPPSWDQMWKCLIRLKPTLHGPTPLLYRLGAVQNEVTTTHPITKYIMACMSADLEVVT

Compound | Inh. (%) (Inhibition) (MBHA with a DNA substrate) | Int.* (Ratio) (Interference) [1] | Int.* (Ratio) (Interference) [2] | Inh. (%) (Inhibition) (MBHA with DNA substrate)
CC(=O)OC1C(O)C(C)OC(OC2C(OC(=O)C3CCC4C(C3)OC3(CC(OC(=O)/C=C/c5ccccc5)C(C)CO3)C43CO3)OC(C)C(O)C2OC(C)=O)C1O (centres unmarked) [Compound 328426] | −3.0 | 1.00 | – | –
Cc1c(Cl)cccc1NC(=O)c1cccc([N+](=O)[O-])c1O [Compound 328477] | – | – | 0.96 | −0.8
CC1(C)CC2=NO[Se]3=C2C(=NO3)C1 [Compound 328587] | – | – | 0.95 | −1.3
CCOc1cccc(/C=N/N=C2\C(=O)Nc3c(Cl)cc(Cl)cc32)c1O [Compound 329277] | – | – | 1.08 | −11.4
O=C1Nc2c(Cl)cc(Cl)cc2C1=NN=Cc1ccco1 [Compound 329279] | – | – | 0.94 | 1.9
C=C1C(=O)O[C@@H]2/C=C(/C)C(=O)C[C@H]3OC(C)(C)O[C@]3(C)C[C@@H](OC(=O)/C(C)=C\C)[C@@H]12 [Compound 329696] | – | – | 0.81 | 32.6
COC1CC(C)C(OC)c2cc(O)cc(c2O)NC(=O)/C(C)=C/C=C\C(C)C(OC(N)=O)/C(C)=C/C(C)C1OC (centres unmarked) [Compound 330500] | 12.0 | 1.04 | – | –
COc1cc2c(c(O)c1OC)-c1c(cc(OC)c(OC)c1OC)C[C@@H](C)[C@@H](C)C2 [Compound 330515] | – | – | 0.95 | 4.3
COc1cc2c(c(OC)c1OC)-c1c(cc3c(c1OC)OCO3)CC(C)C(C)(O)C2OC(=O)c1ccccc1 (centres unmarked) [Compound 330516] | – | – | 0.92 | 13.8
CC(=O)O[C@H]1C(=O)[C@@]2(C)[C@H]([C@H](OC(=O)c3ccccc3)[C@]3(O)C[C@H](O)C(C)=C1C3(C)C)[C@]1(OC(C)=O)CO[C@@H]1C[C@@H]2O [Compound 330753] | −24.1 | 0.88 | – | –
CCOC(=O)Nc1cc2c(c(N)n1)N=C(c1ccccc1)CN2 [Compound 330770] | – | – | 0.91 | −1.6
CCN(CC)CCCC(C)NC(=O)c1ccc2c(c1)C(=O)c1ccccc1C2=O.Cl (centres unmarked) [Compound 331757] | – | – | 0.93 | −16.9
CO[C@@H](/C(C)=C/C=C/C(C)=C/c1coc(C)n1)[C@@H](C)[C@@H]1C[C@H](O)[C@@]2(C)O[C@@H]2/C=C/[C@@H](C)[C@H]2C[C@H](CC(=O)O2)C[C@@H]2O[C@H]2C(=O)O1 [Compound 332598] | – | – | 0.98 | −11.7
COC(=O)NC1C(C)OC(OC2C/C=C(\C)C3C=C[C@H]4C(OC5CC(OC6CCC(OC7CC(O)C(OC8CCC(O)C(C)O8)C(C)O7)C(C)O6)C(OC(C)=O)C(C)O5)C(C)CC(C)[C@@H]4[C@@]3(C)C([O-])=C3C(=O)OC4(CC(C=O)=CC(O)[C@@H]4/C=C\2C)C3=O)CC1(C)[N+](=O)[O-].[Na+] (some centres unmarked) [Compound 333856] | −5.2 | 0.95 | – | –
Cc1c2ccnc(C(N)=O)c2c(C)c2c1[nH]c1ccccc12.Cl [Compound 335142] | – | – | 0.95 | −1.5
O=C1NC(=S)NC(=O)C1C(=O)Nc1ccccc1 [Compound 336628] | – | – | 0.90 | 17.4
O=C1c2ccccc2-c2c1c1ccccc1c(=O)n2Cc1ccccc1 [Compound 337612] | – | – | 0.97 | −16.5
C(=N\NC1=NCCN1)/c1c2ccccc2c(/C=N/NC2=NCCN2)c2ccccc12 [Compound 337766] | – | – | 0.65 | 70.0
CN(C)c1ccc2c(SCC(=O)OCC(=O)[C@@]3(O)CC[C@H]4[C@@H]5CCC6=CC(=O)C=C[C@]6(C)[C@H]5C(=O)C[C@@]43C)c3ccc(N(C)C)cc3nc2c1 [Compound 337851] | – | – | 0.29 | 2.3
Oc1cc2c3c(c1)c1cc4c(cc1c[n+]3CC2)OCO4.[Cl-] [Compound 338259] | – | – | 0.93 | 45.5
COc1nc(C(Cl)(Cl)Cl)c(Cl)c(OC)c1Cl [Compound 338720] | 7.0 | 0.93 | – | –
Nc1ccc(S(=O)(=O)Nc2cnc3c(Cl)cccc3n2)cc1 [Compound 339004] | – | – | 0.89 | 18.5
O=C(CCCN1CCC(C(O)c2ccc(F)cc2)CC1)c1ccc(F)cc1 (centres unmarked) [Compound 343513] | – | – | 0.91 | −8.7
NP(=O)(Oc1c2occc2cc2ccc(=O)oc12)N(CCCl)CCCl (centres unmarked) [Compound 345081] | 9.2 | 0.95 | – | –
CC1Oc2cc3c(-c4c(O)cc(O)c5c(O)c6c(cc45)OC(C)C(C)C6=O)c(O)cc(O)c3c(O)c2C(=O)C1C (centres unmarked) [Compound 345647] | – | – | 0.80 | −17.6

Compound | Inh. (%) (Inhibition) (MBHA with a DNA substrate) | Int.* (Ratio) (Interference) [1] | Int.* (Ratio) (Interference) [2] | Inh. (%) (Inhibition) (MBHA with DNA substrate)
O=[Se]([O-])[O-].[Na+].[Na+] [Compound 347466] | – | – | 0.89 | 27.4
O=C1N[C@@H]2C(=C[C@H](O)[C@@H](O)[C@H]2O)c2cc3c(cc21)OCO3 [Compound 349155] | – | – | 0.98 | 4.1
O=C1N[C@H]2[C@H](O)[C@H](O)[C@@H](O)[C@H](O)[C@@H]2c2cc3c(c(O)c21)OCO3 [Compound 349156] | – | – | 0.95 | −10.2
CC(O)CCC(=O)c1ccoc1 (centres unmarked) [Compound 349438] | 10.5 | 1.01 | – | –
COC1=C(C)C(=O)C2=C(C1=O)C(CO)N1C(C#N)C3CC4C(C1C2N1CCOC41)N3C (centres unmarked) [Compound 349644] | 7.1 | 0.91 | – | –
Cc1ccc(S(=O)(=O)ON=C2CC(c3ccccc3)N(C)C(c3ccccc3)C2)cc1 (centres unmarked) [Compound 351306] | – | – | 0.92 | 25.4
COc1cc(C(C)c2cc3c(cc2OCCO)OCO3)cc(OC)c1OC (centres unmarked) [Compound 352876] | −19.4 | 1.08 | – | –
Nc1ncnc2c([C@@H]3O[C@H](CO)[C@@H](O)[C@H]3O)c[nH]c12 [Compound 352890] | 7.0 | 0.94 | – | –
CCOc1ccc(C(C)c2cc3c(cc2OC)OCO3)cc1 (centres unmarked) [Compound 353648] | – | – | 0.94 | 1.7
C=Cc1cc(OC)c2c(c1)c(=O)oc1c2cc(OC)c2c(O)ccc(C3OC(C)C(O)C(C)(O)C3O)c21 (centres unmarked) [Compound 354844] | – | – | 0.93 | 32.6
NC(=O)C1=C[C@H]2[C@H]3C=C[C@@]2(O)C(=O)O[C@@H]3O1 [Compound 357683] | – | – | 0.99 | 2.7
CCN(CC)Cc1cc(N=Nc2c(O)ccc3c(N=Nc4ccc(O)c(CN(CC)CC)c4)c(O)ccc23)ccc1O.Cl [Compound 359463] | 7.3 | 0.45 | – | –
Cc1ccc2c(c1)C1(C)OC(C=CC1=O)O2 (centres unmarked) [Compound 359892] | – | – | 0.98 | −0.7
CN1CCN(CN2C(=O)C3C4C=CC(C3C2=O)C2C3C(=O)N(CN5CCN(C)CC5)C(=O)C3C42)CC1 (centres unmarked) [Compound 361813] | – | – | 1.03 | 21.8
COC(=O)NC1C(C)OC(OC2C/C=C(/C)C3C=CC4C(OC5CC(OC6CC(O)C(OC7CC(O)C(OC)C(C)O7)C(C)O6)C(O)C(C)O5)C(C)CC(C)C4C3(C)/C(O)=C3\C(=O)OC4(CC(C)C(CO)=CC4/C=C\2C)C3=O)CC1(C)[N+](=O)[O-] (centres unmarked) [Compound 363182] | – | – | 1.08 | 22.2
CC1(C)C2CCC1(CS(=O)(=O)O)C(=O)C2.CN1C(c2ccccc2)CC(=NO)CC1c1ccccc1 (centres unmarked) [Compound 363744] | – | – | 1.04 | 17.2
Cl.O=C1c2cccc(NCCCNCCO)c2C(=O)c2cccc(NCCCNCCO)c21 [Compound 363998] | – | – | 0.17 | 138.7
N#CC(=S)Nc1ccc(F)cc1 [Compound 369317] | – | – | 0.95 | 2.8
Cc1ccc(NC(=S)C#N)c(C)c1 [Compound 369318] | – | – | 0.95 | −0.4
COc1ccc2c(c1)CCc1c-2n[nH]c1-c1[nH]nc2c1CCc1cc(OC)ccc1-2 [Compound 371846] | – | – | 0.86 | 2.1
CN1C(Cl)=NS(=O)(=O)c2ccccc21 [Compound 373853] | – | – | 0.92 | 5.1
Cc1ccc(NC(=O)c2cc3ccccc3c(N=Nc3ccccc3O)c2O)c(C)c1 [Compound 374898] | – | – | 0.97 | 3.2
CC1(C)CCCC2(C)C3=C(CCC12)C(=O)OC3 (centres unmarked) [Compound 375294] | – | – | 0.87 | 13.9
Nc1ccn([C@@H]2C=C(CO)[C@@H](O)[C@H]2O)c(=O)n1 [Compound 375575] | – | – | 0.93 | 12.9
